Measurements from PMC8708751, “Hit Identification of a Novel Quinazoline Sulfonamide as a Promising EphB3 Inhibitor: Design, Virtual Combinatorial Library, Synthesis, Biological Evaluation, and Docking Simulation Studies” (Pharmaceuticals, 2021).

Assays:
Assay type in all cases: biochemical
[1] = target: T1, CDK2/cyclin A (Homo sapiens, UniProt P24941); test: Kinase panel assay, CDK2/cyclin A; details: read-out: Average % Enzyme Inhibition (Relative to DMSO Controls) at 10 µM
T1 construct: purchased Reaction Biology Co. (Kinase HotSpot service)
Procedure: (§1) The screening of the tested compounds was performed using the Kinase HotSpot^SM service from Reaction Biology Co. (http://www.reactionbiology.com, accessed on 25 September 2021). The HotSpot assay platform contains specific kinase/substrate pairs along with required cofactors. Base reaction buffer: 20 mM Hepes (pH 7.5), 10 mM MgCl2, 1 mM EGTA, 0.02% Brij35, 0.02 mg/mL BSA, 0.1 mM Na3VO4, 2 mM DTT, 1% DMSO. The tested compounds were dissolved in 100% DMSO to specific concentration. The serial dilution was conducted by Integra Viaflo Assist in DMSO (Sigma-Aldrich, Burlington, MA, USA). The reaction mixture containing the examined compound and 33P-ATP was incubated at room temperature for 2 h, and radioactivity was detected by filter-binding method. Kinase activity data were expressed as the percent remaining kinase activity in test samples compared to vehicle (dimethyl sulfoxide) reactions. IC50 values and curve fits were obtained using Prism (GraphPad Software, San Diego, CA, USA).

[2] = target: T2, ERBB2/HER2 (Homo sapiens, UniProt P04626); test: Kinase panel assay, ERBB2/HER2; details: ERBB2/HER2, 10 µM; read-out: Average % Enzyme Inhibition (Relative to DMSO Controls) at 10 µM
T2 construct: purchased Reaction Biology Co. (Kinase HotSpot service)
Procedure: as §1

[3] = target: T3, EphB1 (Homo sapiens, UniProt P54762); test: Kinase panel assay, EphB1
T3 construct: purchased Reaction Biology Co. (Kinase HotSpot service)
T3 sequence (P54762 18-984): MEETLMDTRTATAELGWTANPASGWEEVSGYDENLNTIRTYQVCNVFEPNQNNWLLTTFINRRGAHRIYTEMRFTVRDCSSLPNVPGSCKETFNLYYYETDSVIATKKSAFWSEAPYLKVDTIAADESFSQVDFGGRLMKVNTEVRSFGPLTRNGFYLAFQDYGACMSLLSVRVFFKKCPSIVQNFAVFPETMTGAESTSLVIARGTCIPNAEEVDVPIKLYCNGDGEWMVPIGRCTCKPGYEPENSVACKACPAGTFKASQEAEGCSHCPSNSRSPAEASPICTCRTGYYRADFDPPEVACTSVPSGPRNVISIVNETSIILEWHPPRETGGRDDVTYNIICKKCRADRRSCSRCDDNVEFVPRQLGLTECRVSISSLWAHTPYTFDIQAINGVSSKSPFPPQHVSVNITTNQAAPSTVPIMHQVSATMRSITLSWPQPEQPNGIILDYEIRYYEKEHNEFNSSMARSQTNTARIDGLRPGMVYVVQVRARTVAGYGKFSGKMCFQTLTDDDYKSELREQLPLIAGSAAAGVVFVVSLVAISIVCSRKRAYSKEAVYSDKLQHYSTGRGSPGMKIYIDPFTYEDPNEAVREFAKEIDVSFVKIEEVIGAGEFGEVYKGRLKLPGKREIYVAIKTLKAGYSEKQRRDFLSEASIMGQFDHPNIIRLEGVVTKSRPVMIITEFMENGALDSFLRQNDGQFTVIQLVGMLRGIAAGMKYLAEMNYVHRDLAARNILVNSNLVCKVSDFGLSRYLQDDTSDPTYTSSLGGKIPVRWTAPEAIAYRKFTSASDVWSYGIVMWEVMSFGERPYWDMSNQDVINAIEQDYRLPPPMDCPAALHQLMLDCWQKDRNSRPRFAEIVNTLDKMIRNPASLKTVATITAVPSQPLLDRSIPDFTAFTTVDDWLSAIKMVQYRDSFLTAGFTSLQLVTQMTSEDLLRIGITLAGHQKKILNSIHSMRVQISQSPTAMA
Procedure: as §1, with “The” for “The screening of the tested compounds was performed using the Kinase HotSpot^SM service from Reaction Biology Co. (http://www.reactionbiology.com, accessed on 25 September 2021). The”

[4] = target: T4, EphB4 (Homo sapiens, UniProt P54760); test: Kinase panel assay, EphB4
T4 construct: purchased Reaction Biology Co. (Kinase HotSpot service)
T4 sequence (P54760 16-987): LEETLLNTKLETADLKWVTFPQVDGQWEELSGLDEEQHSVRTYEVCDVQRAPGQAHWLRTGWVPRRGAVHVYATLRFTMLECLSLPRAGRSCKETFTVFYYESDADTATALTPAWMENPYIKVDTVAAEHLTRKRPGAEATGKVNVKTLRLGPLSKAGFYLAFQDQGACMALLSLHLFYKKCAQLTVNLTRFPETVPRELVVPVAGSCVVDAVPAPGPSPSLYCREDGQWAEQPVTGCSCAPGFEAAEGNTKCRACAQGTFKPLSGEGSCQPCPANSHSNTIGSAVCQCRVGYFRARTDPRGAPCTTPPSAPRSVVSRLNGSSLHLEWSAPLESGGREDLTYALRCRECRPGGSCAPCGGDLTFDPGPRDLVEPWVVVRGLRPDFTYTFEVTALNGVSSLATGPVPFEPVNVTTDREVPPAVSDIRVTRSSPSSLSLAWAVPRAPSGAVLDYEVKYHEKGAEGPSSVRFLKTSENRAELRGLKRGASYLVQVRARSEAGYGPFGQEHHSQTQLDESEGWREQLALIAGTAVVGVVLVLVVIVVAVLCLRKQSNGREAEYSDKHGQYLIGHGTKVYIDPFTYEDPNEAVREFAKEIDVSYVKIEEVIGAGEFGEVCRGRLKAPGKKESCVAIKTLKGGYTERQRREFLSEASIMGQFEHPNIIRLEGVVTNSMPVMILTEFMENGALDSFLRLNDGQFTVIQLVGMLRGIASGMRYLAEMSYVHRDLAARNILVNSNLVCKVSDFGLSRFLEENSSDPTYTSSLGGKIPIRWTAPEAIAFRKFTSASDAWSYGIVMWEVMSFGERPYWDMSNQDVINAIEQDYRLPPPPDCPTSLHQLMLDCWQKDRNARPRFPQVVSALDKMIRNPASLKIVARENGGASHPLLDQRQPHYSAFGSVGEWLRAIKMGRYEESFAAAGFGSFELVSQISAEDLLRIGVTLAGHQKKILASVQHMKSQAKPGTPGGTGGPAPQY
Procedure: as §1, with “The” for “The screening of the tested compounds was performed using the Kinase HotSpot^SM service from Reaction Biology Co. (http://www.reactionbiology.com, accessed on 25 September 2021). The”

T2 sequence (P04626 23-1255): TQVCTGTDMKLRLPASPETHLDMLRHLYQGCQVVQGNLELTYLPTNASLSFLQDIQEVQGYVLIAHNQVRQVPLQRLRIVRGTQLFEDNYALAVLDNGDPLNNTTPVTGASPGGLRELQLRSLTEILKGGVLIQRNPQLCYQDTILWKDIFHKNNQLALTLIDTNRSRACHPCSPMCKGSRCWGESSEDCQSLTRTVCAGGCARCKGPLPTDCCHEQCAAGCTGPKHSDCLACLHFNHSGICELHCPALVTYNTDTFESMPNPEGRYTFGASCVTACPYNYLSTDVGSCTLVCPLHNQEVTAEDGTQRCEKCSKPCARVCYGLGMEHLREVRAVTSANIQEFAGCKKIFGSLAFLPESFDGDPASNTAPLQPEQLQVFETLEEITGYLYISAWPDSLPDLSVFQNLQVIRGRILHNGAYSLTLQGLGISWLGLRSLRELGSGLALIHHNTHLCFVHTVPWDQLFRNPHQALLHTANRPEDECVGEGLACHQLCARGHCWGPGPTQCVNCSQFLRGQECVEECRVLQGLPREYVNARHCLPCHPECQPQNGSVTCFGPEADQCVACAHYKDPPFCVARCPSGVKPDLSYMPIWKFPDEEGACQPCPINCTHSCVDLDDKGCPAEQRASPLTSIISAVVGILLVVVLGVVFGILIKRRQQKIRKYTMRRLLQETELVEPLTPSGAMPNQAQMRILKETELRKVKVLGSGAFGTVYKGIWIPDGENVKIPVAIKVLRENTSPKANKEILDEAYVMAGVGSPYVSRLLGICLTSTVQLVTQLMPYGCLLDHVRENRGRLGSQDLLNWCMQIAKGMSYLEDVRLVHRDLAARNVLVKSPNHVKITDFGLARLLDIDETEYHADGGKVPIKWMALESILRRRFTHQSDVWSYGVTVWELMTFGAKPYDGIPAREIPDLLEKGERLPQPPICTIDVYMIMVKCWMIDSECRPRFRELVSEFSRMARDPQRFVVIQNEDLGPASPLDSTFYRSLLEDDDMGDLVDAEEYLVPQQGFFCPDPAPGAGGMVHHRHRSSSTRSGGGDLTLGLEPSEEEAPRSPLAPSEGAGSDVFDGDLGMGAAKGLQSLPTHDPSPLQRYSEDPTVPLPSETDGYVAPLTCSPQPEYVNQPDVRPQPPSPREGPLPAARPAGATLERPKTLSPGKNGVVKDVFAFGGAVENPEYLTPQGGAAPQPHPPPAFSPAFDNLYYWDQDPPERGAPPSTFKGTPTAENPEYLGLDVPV

inhibition at 10 µM [1]: 75 ± 2.07%
inhibition at 10 µM [2]: 67.8 ± 0.99%
inhibition at 10 µM ([3]; EphB1, 10 µM, read-out: Average % Enzyme Inhibition (Relative to DMSO Controls) at 10 µM): 58.9 ± 1.98%
IC50 ([3]; EphB1, dose-dependent assay): 5.86 µM
inhibition at 10 µM ([4]; EphB4, 10 µM, read-out: Average % Enzyme Inhibition (Relative to DMSO Controls) at 10 µM): 70.2 ± 3.64%
IC50 ([4]; EphB4, dose-dependent assay): 3.98 µM
SMILES: NS(=O)(=O)c1ccc(Nc2ncnc3ccc(-c4cccc(O)c4)cc23)cc1 [Compound 4c, 4-((6-(3-Hydroxyphenyl)quinazolin-4-yl)amino)benzenesulfonamide]
